# Columns and labels:
# [1] = system: A2780 ovarian cancer cells; test: Molecular screening of compounds on A2780 cell proliferation (resazurin fluorescence); format: cell-based, human; details: except at a high concentration
# Experimental: (§1) Cell proliferation assays—Cells were plated in 96-well plates. Compounds were added the next morning, and cell proliferation was measured 48 hrs later with the […] 96 MTS assay (Promega) according to the manufacturer's instructions. Molecular screening of compounds on A2780 cells was performed by adding compounds the morning after plating in 384-well plates and measuring proliferation 72 hrs later with resazurin fluorescence. Normalized percent inhibition (NPI) was calculated with respect to fluorescence values obtained with DMSO negative control and doxorubicin (5 μM) positive control as NPI=100%*(DMSO−compound)/(DMSO−doxorubicin). TCR ligation of human CD8 T cells
# (§2) EC50 values were calculated from normalized percent inhibition data using non-linear curve fitting in PRISM software.
# MCF-7 tumor cells = test: MCF-7 cell proliferation, MTS assay; format: cell-based, human; details: 2 days
# Experimental: Representative results from one of two independent experiments.
# as §1
# human T cells [2] = test: ConA-induced activation and expansion of human T cells (high-throughput screen); format: cell-based
# Experimental: T cell stimulation—For human T cell proliferation assays, peripheral blood lymphocytes were obtained by leukapheresis/elutriation and Miltenyi bead-purified and K562 cells expressing human CD32 were generated as previously described^41. […] PBMCs were labeled with CELLTRACE Violet stain (Invitrogen) according to the manufacturer's instructions and cocultured with loaded K32 cells at a 10:1 T cells:K32 ratio or activated with ConA (2 μg/ml, Sigma). Proliferation of stimulated T cells was determined 7 days later by FACS and Division Index was calculated using FlowJo software.
# as §2
# human T cells [3] = test: aAPC (anti-CD3/anti-CD28)-induced human T cell proliferation, CELLTRACE; format: cell-based; details: 7 days
# Experimental: Four plots show proliferation of CD8 cells after 7 days is shown. […] Proliferation of CD8 cells after 7 days is shown. T cell stimulation-For human T cell proliferation assays, peripheral blood lymphocytes were obtained by leukapheresis/elutriation and Miltenyi bead-purified and K562 cells expressing human CD32 were generated as previously described^41. […] were γ-irradiated (100 Gy) and loaded with anti-CD3 (500 ng/ml, clone OKT3; eBioscience) plus anti-CD28 (500 ng/ml, clone 15E8; EMD Millipore) antibodies at room temperature for 10 minutes. PBMCs were labeled with CELLTRACE Violet stain (Invitrogen) according to the manufacturer's instructions and cocultured with loaded […] cells at a 10:1 T cells:[…] ratio or activated with ConA (2 μg/ml, Sigma). Proliferation of stimulated T cells was determined 7 days later by FACS and Division Index was calculated using FlowJo software.
# ERK1/2 phosphorylation = test: TCR ligation of human CD8 T cells, Western blot for ERK1/2 phosphorylation; format: cell-based
# Experimental: FIG. 2C is a blot showing FACS-sorted human CD8 T cells that were stimulated by anti-CD3/CD28 crosslinking in the presence of the indicated compounds as described in methods. After 10 min, cells were harvested for Western blotting.
# CD8+ cells were sorted from PBMCs and rested overnight in R10. T cells (0.5×10^6 per condition) were stained with OKT3-biotin (BioLegend, 10 μg/ml) for 15 mins on ice, and washed in cold PBS. TCR ligation was performed by adding streptavidin (Promega, 25 μg/ml) and anti-CD28 (Millipore, clone 15E8, 1 μg/ml) in the presence of indicated inhibitors for 10 min at 37° C.
# Western blotting—Cells were lysed in RIPA buffer (Thermo Scientific) with protease inhibitors (Complete Protease Inhibitor Cocktail Tablets, Roche) and phosphatase inhibitors (Halt Phosphatase Inhibitor, Thermo Scientific, and Na3VO4, 1 mM) and cleared by centrifugation. Proteins were quantified by BCA assay (Thermo Scientific), diluted in reducing lamelli buffer, denatured by incubation at 95° C., run on mini Protean TGX Ready Gels (Bio-Rad Laboratories), transferred to a nitrocellulose membrane, blocked, and incubated with primary antibodies for p-ERK1/2 (Cell Signaling Technologies, clone D13.14.4E), p-AKT (Cell Signaling Technologies, clone D9E), beta-tubulin (Cell Signaling Technologies, clone 9F3), beta-actin (Sigma, clone AC-15), or IGF-1R (Cell Signaling Technologies, #3027). Immunoreactive bands were developed using horseradish peroxidase-conjugated secondary antibodies (Bio-Rad Laboratories) and ECL substrate (GE Healthcare).
# osteopontin (SPP1) = test: LC-MS/MS of culture supernatants from Brpkp110 cells; format: cell-based, mouse; details: 200 nM, 40 hrs
# Experimental: Supernatants were collected, centrifuged, passed through a 0.22 μm filter, and concentrated by centrifugation in Amicon 3000 MWCO tubes (EMD Millipore). Concentrated sups were run 0.5 cm on a NuPage 12% Gel with MES buffer, extracted, and digested with trypsin.
# Liquid chromatography tandem mass spectrometry (LC-MS/MS) analysis was performed by the Wistar Proteomics Facility using a Q Exactive Plus mass spectrometer (Thermo Scientific) coupled with a Nano-ACQUITY UPLC system (Waters). Samples were injected onto a UPLC Symmetry trap column (180 μm i.d.×2 cm packed with 5 μm C18 resin; Waters), and tryptic peptides were separated by RP-HPLC on a BEH C18 nanocapillary analytical column (75 μm i.d.×25 cm, 1.7 μm particle size; Waters) using a gradient formed by solvent A (0.1% formic acid in water) and solvent B (0.1% formic acid in acetonitrile). Peptides were eluted at 200 nL/min for 5-30% B over 225 min, 30-80% B over 5 min, constant 80% B for 10 min before returning to 5% B over 1 min. A 30-min blank gradient was run between sample injections to minimize carryover. Eluted peptides were analyzed by the mass spectrometer set to repetitively scan m/z from 400 to 2000. […]
# MS data were analyzed with MaxQuant 1.5.2.8 software^42. […]
# Brpkp110 cells = test: Brpkp110 cell proliferation, MTS assay; format: cell-based, mouse; details: in vitro, 2 days
# Experimental: as §1
# human T cells [4] = test: Cytokine rescue of human T cell proliferation from MEK inhibition; format: cell-based
# Experimental: Proliferation of CD8 T cells after 7 days is shown.
# FIG. 2D is a graph showing that human PBMCs were activated as in FIG. 2B with the indicated compounds, BKM120=2 μM.
# Reported are percentages of cells that proliferated with GDC0973 relative to vehicle treatment with the same cytokines after 7 days. Stains are not depicted.
# T cell stimulation—For human T cell proliferation assays, peripheral blood lymphocytes were obtained by leukapheresis/elutriation and Miltenyi bead-purified and K562 cells expressing human CD32 were generated as previously described^41. K32 were γ-irradiated (100 Gy) and loaded with anti-CD3 (500 ng/ml, clone OKT3; eBioscience) plus anti-CD28 (500 ng/ml, clone 15E8; EMD Millipore) antibodies at room temperature for 10 minutes. PBMCs were labeled with CELLTRACE Violet stain (Invitrogen) according to the manufacturer's instructions and cocultured with loaded K32 cells at a 10:1 T cells:K32 ratio or activated with ConA (2 μg/ml, Sigma). Proliferation of stimulated T cells was determined 7 days later by FACS and Division Index was calculated using FlowJo software.
molecule,measurement,setting,value
C[C@]1(O)C[C@@H](c2nc(-c3ccc4ccc(-c5ccccc5)nc4c3)c3c(N)nccn32)C1 [OSI906],activity on A2780 cells,[1],did not show any activity
same,tumor cell proliferation of MCF-7 cells,MCF-7 tumor cells,a reduction in tumor cell proliferation at concentrations that did not affect T cells
same,activity on T cells,human T cells [2]; except at a high concentration,did not show any activity
same,proliferation of human T cells in response to aAPC coated with agonistic CD3 and CD28 antibodies,human T cells [3],did not impact
"CCCCCCCCCCCCCC(=O)O[C@@H]1[C@@H](C)[C@@]2(O)[C@@H](C=C(CO)C[C@]3(O)C(=O)C(C)=C[C@@H]23)[C@@H]2C(C)(C)[C@]12OC(C)=O [PMA, phorbol-12-myristate-13-acetate]",ERK phosphorylation under PI3K inhibition,ERK1/2 phosphorylation; without fully restoring AKT phosphorylation,completely overcomes the suppressive effect
CC(=O)Nc1cccc(-n2c(=O)n(C3CC3)c(=O)c3c(Nc4ccc(I)cc4F)n(C)c(=O)c(C)c32)c1 [trametinib],EC50,"human T cells [2]; T-cell, 168 h, human T cells activated with ConA for 7 days, N/A = ambiguous curve fits or EC50 greater than the highest concentration tested (25 μM)",0.337 nM
same,decrease of osteopontin (SPP1) in Brpkp110 supernatants,osteopontin (SPP1),> 18 fold
same,growth compared to vehicle,Brpkp110 cells,70%
"IL-15: recombinant human IL-15 (Novoprotein), proliferative cytokine",rescue of T cell proliferation in the presence of the MEK inhibitors,human T cells [4]; GDC0973 or trametinib,able to rescue T cell proliferation
same,rescue of T cell expansion when PI3K and MEK inhibitors were combined,human T cells [4]; trametinib + BKM120,could not be fully rescued
same,rescue of the defect in ERK phosphorylation in the presence of BKM120,ERK1/2 phosphorylation; pan-PI3K inhibitor BKM120 present,unable to rescue
same,rescue of early TCR-induced MAPK signaling (ERK1/2 phosphorylation) from MEK inhibition,ERK1/2 phosphorylation; within 10 minutes,can rescue

# — US20180280393A1, “METHODS AND COMPOSITIONS FOR TREATMENT OF METASTATIC AND REFRACTORY CANCERS AND TUMORS” (The Wistar Institute of Anatomy and Biology, priority 2015, published 2018)
